From ChEMBL document CHEMBL5584238, “Psammaplin A analogues with modified disulfide bond targeting histone deacetylases: Synthesis and biological evaluation” (Eur J Med Chem, 2024) come the findings set out here.

Active and inactive are the calls of the source. The rule behind the calls is not given here.

Series [1] is described as follows: Toxicity in mouse assessed as mortality at 5 mg/kg, ip administered every 2 days for 26 days. Conditions: in vivo, 624 h, time 26 day. The series is classed as organism-based.
Series [2] relates to HCT-116. Put plainly: Induction of cell cycle arrest in human HCT-116 cells assessed as accumulation of cells at S phase at 0.4 uM after 24 hrs by PI staining based flow cytometry analysis (reference value: 52.8%). The series is classed as functional.
The next series has as its system NCI-H1581. Put plainly: Antiproliferative activity against human NCI-H1581 cells incubated for 48 hrs by MTT assay. It is filed as functional, cell-based. The following applies: NCI-H1581, 48 h. (In general: Formazan colour is commonly taken as a measure of viable cells.)
Series [3] relates to HCT-116. The experiment in a line: Induction of cell cycle arrest in human HCT-116 cells assessed as accumulation of cells at G1 phase at 0.4 uM after 24 hrs by PI staining based flow cytometry analysis (reference value: 37.9%). It is filed as functional. In general terms: Flow cytometry measures light scatter and fluorescence of single cells or particles in a stream.
Series [4] concerns the target Class 1 histone deacetylase (Homo sapiens) (UniProt Q13547+O15379+Q92769+Q9BY41). The experiment in a line: Inhibition of class 1 HDACs in human HCT-116 cells assessed as upregulation of acetylated alpha-H3 level at 1 uM incubated for 24 hrs by Western blotting analysis. The series is classed as cell-based.
The next series deals with EBC-1. The experiment in a line: Antiproliferative activity against human EBC-1 cells incubated for 48 hrs by MTT assay. It is filed as functional, cell-based. Conditions: EBC-1, 48 h.

Class 1 histone deacetylase (Homo sapiens), sequence (O15379 whole entry, looked up): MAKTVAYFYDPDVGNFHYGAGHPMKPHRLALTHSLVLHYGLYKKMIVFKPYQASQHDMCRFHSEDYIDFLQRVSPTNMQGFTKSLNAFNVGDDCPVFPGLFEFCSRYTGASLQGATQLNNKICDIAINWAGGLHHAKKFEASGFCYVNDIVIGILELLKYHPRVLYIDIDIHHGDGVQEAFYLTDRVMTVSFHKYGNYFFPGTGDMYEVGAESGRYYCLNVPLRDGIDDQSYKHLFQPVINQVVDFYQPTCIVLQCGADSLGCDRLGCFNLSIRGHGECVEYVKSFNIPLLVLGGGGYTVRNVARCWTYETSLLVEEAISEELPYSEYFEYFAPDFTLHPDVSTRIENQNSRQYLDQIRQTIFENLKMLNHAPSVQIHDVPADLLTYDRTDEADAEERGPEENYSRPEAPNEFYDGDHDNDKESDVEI
Class 1 histone deacetylase (Homo sapiens), sequence (Q13547 whole entry, looked up): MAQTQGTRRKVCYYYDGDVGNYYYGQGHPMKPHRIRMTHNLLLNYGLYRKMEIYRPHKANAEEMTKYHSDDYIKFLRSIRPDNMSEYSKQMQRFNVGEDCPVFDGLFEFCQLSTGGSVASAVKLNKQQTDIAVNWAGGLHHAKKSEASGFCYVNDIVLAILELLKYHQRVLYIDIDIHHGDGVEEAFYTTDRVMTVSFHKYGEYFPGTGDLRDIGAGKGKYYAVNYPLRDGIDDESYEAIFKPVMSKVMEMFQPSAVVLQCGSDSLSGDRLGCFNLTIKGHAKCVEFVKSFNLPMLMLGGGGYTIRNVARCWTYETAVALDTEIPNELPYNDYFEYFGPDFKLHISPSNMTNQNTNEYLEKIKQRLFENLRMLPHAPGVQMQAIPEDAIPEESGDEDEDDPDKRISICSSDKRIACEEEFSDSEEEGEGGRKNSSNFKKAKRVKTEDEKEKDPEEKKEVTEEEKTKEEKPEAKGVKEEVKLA
Class 1 histone deacetylase (Homo sapiens), sequence (Q92769 whole entry, looked up): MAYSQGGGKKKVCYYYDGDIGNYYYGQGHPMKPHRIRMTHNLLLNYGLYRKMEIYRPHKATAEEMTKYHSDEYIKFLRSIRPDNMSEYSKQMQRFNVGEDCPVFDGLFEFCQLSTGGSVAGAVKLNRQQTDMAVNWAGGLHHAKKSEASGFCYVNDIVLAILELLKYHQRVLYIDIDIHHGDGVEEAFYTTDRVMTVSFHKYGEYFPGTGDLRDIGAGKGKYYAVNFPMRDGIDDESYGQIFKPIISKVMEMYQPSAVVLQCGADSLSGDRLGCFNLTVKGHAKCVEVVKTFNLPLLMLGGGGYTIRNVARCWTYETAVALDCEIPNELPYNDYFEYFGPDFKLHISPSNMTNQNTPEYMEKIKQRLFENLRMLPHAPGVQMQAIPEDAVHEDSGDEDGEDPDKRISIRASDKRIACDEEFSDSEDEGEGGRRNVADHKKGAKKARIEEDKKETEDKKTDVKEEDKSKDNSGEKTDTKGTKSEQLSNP
Class 1 histone deacetylase (Homo sapiens), sequence (Q9BY41 whole entry, looked up): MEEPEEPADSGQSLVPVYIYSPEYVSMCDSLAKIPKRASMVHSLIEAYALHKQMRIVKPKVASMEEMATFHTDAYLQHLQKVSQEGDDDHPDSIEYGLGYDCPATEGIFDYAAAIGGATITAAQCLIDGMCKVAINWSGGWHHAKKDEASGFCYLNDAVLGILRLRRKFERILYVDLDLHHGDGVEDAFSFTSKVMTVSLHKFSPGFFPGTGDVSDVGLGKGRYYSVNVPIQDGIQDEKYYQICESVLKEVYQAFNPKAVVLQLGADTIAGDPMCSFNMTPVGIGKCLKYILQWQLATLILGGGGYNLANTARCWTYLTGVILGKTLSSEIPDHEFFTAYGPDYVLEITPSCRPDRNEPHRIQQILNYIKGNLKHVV

Turning to `O=C(NCC[Se][Se]CCNC(=O)/C(Cc1ccc(O)c(Br)c1)=N/O)/C(Cc1ccc(O)c(Br)c1)=N/O`, in series [1], the Activity entry is “Toxic”.

With `O=C(NCC[Se][Se]CCNC(=O)/C(Cc1ccsc1)=N/O)/C(Cc1ccsc1)=N/O`, the figures for the Activity in the series on HCT-116 [2] and in the series on HCT-116 [3] were 39.56% and 7.85%, respectively. Also, the figures for the IC50 in the series on NCI-H1581 and in the series with EBC-1 were 0.26 µM and 0.64 µM, respectively. Moreover, the inhibition entry in series [4] was “Active”.
